Data on one compound can be found in patent publication US20090317466A1, “Fixed dose pharmaceutical composition comprising hyroxyurea and didanosine” (priority 2008, published 2009).

The series can be described thus: Stability of hydroxyurea on removal of citric acid from the composition. Format: physicochemical. Conditions: removal of the stabilizer citric acid from the composition. From the text: The commercially available hydroxyurea tablets contain citric acid.

In the case of `NC(=O)NO` [hydroxyurea], the stability of hydroxyurea result is on record as “not significantly affected”.
